These results are taken from patent US6271238A, “Acetamide derivatives and protease inhibitors” (Nippon Kayaku Kabushiki Kaisha, priority 1996, dated 2001).

In one experiment the target is Human urokinase (Homo sapiens, UniProt P00749). Description: Inhibitory activity on proteases other than chymase: human urokinase. The format is biochemical. The note with it: pyridyl glycyl arginyl methylcoumarylamide substrate; read-out: 50% Inhibitory concentration toward Human urokinase. On the procedure: (E) Measurement of inhibitory activity on proteases other than chymase The inhibitory activity of the present compounds on human elastase, human cathepsin G, human urokinase, human thrombin, human plasmin, and human factor Xa was determined using their corresponding synthetic substrates in the same manner as for chymase. All the above proteases were those commercially available from Boehringer Mannheim or purified by a combination of known methods. The synthetic substrates were those produced by Peptide Renkyusho. The synthetic substrates for the respective proteases are as follows. |Human urokinase Pyridyl glycyl arginyl methylcoumarylamide The test was conducted several times. Chymase was prepared for each test in the manner described above. The compounds examined were compounds prepared in the above-described examples.

The target of the next experiment is T1, human chymase (Homo sapiens, UniProt P23946).
T1 construct: 60 g human tonsils were finely divided by scissors and a scalpel; from tissue; host or cells: human tonsils
T1 sequence (P23946 22-247): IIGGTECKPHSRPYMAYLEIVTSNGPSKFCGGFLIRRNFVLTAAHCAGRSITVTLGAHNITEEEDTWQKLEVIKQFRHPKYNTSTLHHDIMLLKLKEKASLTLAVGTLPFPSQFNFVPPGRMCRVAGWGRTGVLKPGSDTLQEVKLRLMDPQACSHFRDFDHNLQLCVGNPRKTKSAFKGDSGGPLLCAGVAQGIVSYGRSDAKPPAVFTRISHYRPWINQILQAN
Description: Inhibitory activity on human chymase (angiotensin I as substrate). The format is biochemical. To be noted: for IC50: substrate angiotensin I, pH 8.0, 37° C., 60 min, read-out: Human Chymase (IC50: nM), 50% inhibitory concentration. The text has this: It is known that chymase is present in tissues of various animals, and its isolation and purification methods are described in Anal. Biochem., 137, 449 (1984) and FEBS Letters, 323, 119 (1993). In the present invention, chymase was purified by the methods described in these literatures, and the present compounds were examined for inhibitory activity on chymase, inhibitory action on activation of mast cells and eosinophils, and pharmacological action in animals. Hereinafter, specific methods are described. 50 g rat tongue was finely divided by scissors and a scalpel, suspended in 0.1 M phosphate buffer (pH 8.0), and disrupted by a Polytron homogenizer for 5 minutes to prepare a crude chymase enzyme solution. […] The supernatant was applied to an octyl Sepharose 4B column (40×100 mm) previously equilibrated with 0.1 M phosphate buffer (pH 8.0) containing 2 M sodium chloride and 5% ammonium sulfate, and the protein was eluted with a linear concentration gradient of from 2 M to 0 M sodium chloride. An active fraction decomposing succinyl leucyl leucyl valyl tyrosyl methylcumarylamide (hereinafter referred to as the synthetic chymase substrate, a product of Peptide Kenkyusho) was recovered and concentrated and this product was used as a purified rat chymase in the following activity measurement. (B) Preparation of human chymase 60 g human tonsils were finely divided by scissors and a scalpel, suspended in 0.1 M phosphate buffer (pH 8.0), and A-disrupted by a Polytron homogenizer for 5 minutes to prepare a crude chymase enzyme solution. It was centrifuged at 22000×g for 30 minutes, and the precipitates were used as a chymase enzyme fraction. […] The supernatant was concentrated by an ultrafiltration membrane, then applied to […] column (6.0×300 mm), and eluted with 0.1 M phosphate buffer (pH 8.0). An active fraction decomposing the synthetic chymase substrate was recovered and concentrated and this product was used as a purified human chymase in the following activity measurement. (D) Measurement of inhibitory activity on chymase (b) Measurement using angiotensin I as substrate The inhibitory activity on the human chymase and dog chymase was measured using angiotensin I (Peptide Kenkyusho) as substrate besides the above synthetic substrate. […] After the end of the reaction, produced angiotensin II was immediately measured by high performance liquid chromatography to determine the activity of the chymase to calculate 50% inhibitory concentration (IC50: nM). The test was conducted several times. Chymase was prepared for each test in the manner described above. The compounds examined were compounds prepared in the above-described examples. […] 50% Inhibitory concentration (IC50: nM) of each compound toward rat chymase, dog […] human […] Substrate: Succinyl leucyl leucyl valyl tyrosyl methylcoumarylamide (for rat […] angiotensin I (for human and dog chymase)

Another experiment has as its system rat mast cells. Description: Inhibitory action on degranulation of mast cells (histamine release from rat mast cells). In kind it is cell-based. To be noted: Mast cell; rat peritoneal mast cells, anti-IgE antibody, 37° C. On the procedure: Inhibitory action on degranulation of mast cells
(A) Preparation of mast cells
30 ml of mast cell buffer solution (150 mM sodium chloride, 3.7 mM potassium chloride, 3.0 mM disodium hydrogen phosphate, 3.5 mM sodium dihydrogen phosphate, 5.6 mM dextrose, pH 7.0) was injected into the abdomen of a rat(SD, male, 8 to 10 week-old), and intra peritoneal cavity cells were recovered and centrifuged at 800 rpm for 5 minutes, and then the abdomen infiltration cells were recovered as precipitates. The precipitated cells were further washed twice with the mast cell buffer solution, suspended again at a predetermined density, and used in the objective experiment.
(B) Inhibitory action on degranulation of mast cells (inhibitory action on histamine release from rat mast cells)
The mast cells obtained in the procedure in (A) above were suspended at 1×10^5 cells in the mast cell buffer solution and kept at 37° C. 2 μl of each drug and 200 μl of the cell suspension were added into a 1.5 ml test tube previously kept at 37° C. and incubated at 37° C. for 10 minutes. After incubation, 2 μl anti-IgE antibody (BETHYL Lab. Inc.) was added to it and further incubated at 37° C. for 15 minutes. After the end of the reaction, the reaction mixture was immediately cooled on ice and centrifuged at 4° C. at 4000 rpm for 5 minutes, and then the supernatant was stored. Histamine in the supernatant was modified with ortho-phthalaldehyde and measured by high performance liquid chromatography to determine 50% inhibitory concentration (IC50: μM).

Structures can show the parent of a compound that is named as a salt. Where only a bound is given, the exact number is not on record here.

For `CC(C)(C)OC(=O)Nc1cnc(-c2ccccc2)n(CC(=O)NC(Cc2ccccc2)C(=O)C(=O)CCCOc2ccccn2)c1=O` (stereo not shown) [Compound 74, 2-(5-t-Butyloxycarbonylamino-6-oxo-2-phenyl-1,6-dihydropyrimidine-1-yl)-N-{2,3-dioxo-6-(2-pyridyloxy)-1-phenylmethyl}hexylacetamide], the IC50 on Human urokinase was above 10 µM. Also, on human chymase, the “inhibitory activity on human chymase, in words” value (“inhibitory activity” for short) was “strong inhibitory activity on human chymase” and the IC50 turned out to be 11 nM.
For the compound `O=C(Cn1c(-c2ccccc2)ncc(NS(=O)(=O)NCc2ccccc2)c1=O)NC(Cc1ccccc1)C(=O)C(=O)CCCOc1ccccn1` (stereo not shown) [Compound 82, 2-(5-Benzylaminosulfonylamino-6-oxo-2-phenyl-1,6-dihydropyrimidine-1-yl)-N-{2,3-dioxo-1-phenylmethyl-6-(2-pyridyloxy)}hexylacetamide], the results for the IC50 at Human urokinase and on human chymase were above 10 µM and 0.74 nM, respectively. Further, the “inhibitory activity” value against human chymase was “strong inhibitory activity on human chymase”.
With `CC(=O)Nc1cnc(-c2ccccc2)n(CC(=O)NC(Cc2ccccc2)C(=O)C(=O)CCCOc2ccccn2)c1=O` (stereo not shown) [Compound 80, 2-(5-Acetylamino-6-oxo-2-phenyl-1,6-dihydropyrimidine1-yl)-N-{2,3-dioxo-1-phenylmethyl-6-(-2-pyridyloxy)}hexyl-acetamide], on Human urokinase, the IC50 was above 10 µM. Besides, at human chymase, the “inhibitory activity” value was “strong inhibitory activity on human chymase” and the IC50 stood at 0.9 nM.
As for `CC(=O)C(=O)C(Cc1cccc(F)c1)NC(=O)Cn1c(-c2ccccc2)ncc(N)c1=O` (stereo not shown) [Compound 52, 2-(5-Amino-6-oxo-2-phenyl-1,6-dihydropyrimidine-1-yl)-N-{1-(3-fluorophenyl)methyl-2,3-dioxo}butylacetamide], the IC50 at Human urokinase was above 10 µM; with rat mast cells, 50 µM; at human chymase, 120 nM.
For the compound `O=CNc1cnc(-c2ccccc2)n(CC(=O)NC(Cc2ccccc2)C(=O)C(=O)CCCOc2ccccn2)c1=O` (stereo not shown) [Compound 79, 2-(5-Formylamino-6-oxo-2-phenyl-1,6-dihydropyrimidine-1-yl)-N-{2,3-dioxo-1-phenylmethyl-6-(2-pyridyloxy)}hexylacetamide], the IC50 on Human urokinase was above 10 µM. In addition, on human chymase, the “inhibitory activity” value is recorded as “strong inhibitory activity on human chymase” and the IC50 is 2.4 nM.
Turning to `CC(C)(C)OC(=O)Nc1cnc(-c2ccccc2)n(CC(=O)NC(Cc2ccccc2)C(=O)C(=O)CCCn2ccccc2=O)c1=O` (stereo not shown) [Compound 72, 2-(5-t-Butyloxycarbonylamino-6-oxo-2-phenyl-1,6-dihydropyrimidine-1-yl)-N-{2,3-dioxo-6-(2-oxo-1,2-dihydropyridine-1-yl)-1-phenylmethyl}hexylacetamide], the IC50 on Human urokinase was above 10 µM. On human chymase, the “inhibitory activity” value is recorded as “strong inhibitory activity on human chymase” and the IC50 came to 90 nM.
On to `Nc1cnc(-c2ccccc2)n(CC(=O)NC(Cc2ccccc2)C(=O)C(=O)CCCn2ccccc2=O)c1=O` (stereo not shown) [Compound 73, 2-(5-Amino-6-oxo-2-phenyl-1,6-dihydropyrimidine-1-yl)-N-{2,3-dioxo-1-phenylmethyl-6-(2-oxo-1,2-dihydropyridine-1-yl)}hexylacetamide hydrochloride], for which, on human chymase, the “inhibitory activity” value is recorded as “strong inhibitory activity on human chymase” and the IC50 is 46 nM.
Consider `Nc1cnc(-c2ccccc2)n(CC(=O)NC(Cc2ccccc2)C(=O)C(=O)CCCc2ccccc2)c1=O` (stereo not shown) [Compound 40], for which the IC50 on Human urokinase was above 10 µM; with rat mast cells, 1.8 µM; at human chymase, 190 nM.
Regarding `CCOC(=O)CCCC(=O)C(=O)C(Cc1cccc(F)c1)NC(=O)Cn1c(-c2ccccc2)ncc(N)c1=O` (stereo not shown) [Compound 54], the IC50 came out at 35 µM in the experiment on rat mast cells and 36 nM on human chymase. The “inhibitory activity” value against human chymase was “strong inhibitory activity on human chymase”.
In the case of `CCCCC(=O)C(=O)C(Cc1ccccc1)NC(=O)Cn1c(-c2ccccc2)ncc(N)c1=O` (stereo not shown) [Compound 44], the IC50 came out at 14 µM in the experiment with rat mast cells and 146 nM on human chymase.
